Some test systems named below: IGROV-1; HCT-116; HL-60; BT-549; RPMI-8226; A549; OVCAR-3; SK-MEL-5; SNB-19; NCI-H226; COLO 205; LOX IMVI; HOP-62; KM12; NCI/ADR-RES; NCI-H23; NCI-H460; Malme-3M.
What all share (test): NCI-60 cell line screen, 48 h

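Assay format: 96-well plates, 48-hour exposure. Here, GI50 denotes the concentration required for 50% inhibition of growth.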 Active and inactive are the calls of the source. Rule as the data show it: active = GI50 up to about 1.1 µM and inactive = higher.

`CC(=O)OC1CC2c3cccc4c3C(CC2N(C)C1=O)CN4C(=O)c1ccccc1` (centres undefined): the GI50 with IGROV-1 is 14.6 µM (inactive); in the assay on HCT-116 it was 17 µM (inactive); in the assay with HL-60, 15.2 µM (inactive); in the assay with BT-549, 6.9 µM (inactive); in the assay with RPMI-8226, 26.6 µM (inactive); in the assay on A549 it was 17.5 µM (inactive). The GI50 in the assay with OVCAR-3 is 13.8 µM (inactive); in the assay on SK-MEL-5, 14.4 µM (inactive); in the assay on SNB-19 it was 30.3 µM (inactive); with NCI-H226, 20.7 µM (inactive); with COLO 205, 23.3 µM (inactive); in the assay with LOX IMVI, 12.1 µM (inactive). The GI50 was 23.2 µM (inactive) in the assay with HOP-62, 21.3 µM (inactive) in the assay on KM12, 20.6 µM (inactive) in the assay on NCI/ADR-RES and 16.6 µM (inactive) with NCI-H23.

`COc1ccc(OCc2ccc3nc(-c4ccccc4)c(Cl)nc3c2)cc1`: the GI50 in the assay on IGROV-1 was 38 µM (inactive); in the assay on HCT-116, 19.2 µM (inactive); with HL-60, 12.3 µM (inactive); in the assay on BT-549, 0.018 µM (active); with RPMI-8226, 9.93 µM (inactive); with A549, 40 µM (inactive). For the same molecule, the GI50 with OVCAR-3 is 84.3 µM (inactive); with SK-MEL-5, 6.89 µM (inactive); in the assay on SNB-19, 26.5 µM (inactive); in the assay with COLO 205, 16.6 µM (inactive); with NCI-H460, 16.7 µM (inactive); in the assay with LOX IMVI it was 84.5 µM (inactive). Moreover, the GI50 was 14.2 µM (inactive) in the assay on HOP-62; > 100 µM (inactive) in the assay on KM12; 40.3 µM (inactive) with NCI/ADR-RES; 19 µM (inactive) in the assay on NCI-H23; 12.9 µM (inactive) in the assay with Malme-3M.

As to `NC(=O)c1cc(-c2ccc(-n3ccnc3)cc2)nnc1O`, the GI50 in the assay on IGROV-1, in the assay on HCT-116, with HL-60, with BT-549, in the assay on RPMI-8226 and in the assay with A549 was > 100 µM (inactive) each time. The GI50 with SK-MEL-5, in the assay with SNB-19, in the assay with COLO 205, in the assay with NCI-H460, in the assay with HOP-62 and in the assay with NCI-H23 was > 100 µM (inactive) throughout. Further, the GI50 in the assay with Malme-3M is > 100 µM (inactive).

For the molecule `CN(CCNC(=O)c1nn(-c2ccc(Cl)cc2Cl)c2c1Cc1ccccc1-2)CCNC(=O)c1nn(-c2ccc(Cl)cc2Cl)c2c1Cc1ccccc1-2`, the GI50 is 4.53 µM (inactive) in the assay on IGROV-1; 2.1 µM (inactive) with HCT-116; 1.55 µM (inactive) with HL-60; 7.38 µM (inactive) in the assay with BT-549; 1.62 µM (inactive) in the assay with RPMI-8226; 3.29 µM (inactive) with A549. Besides, the GI50 with OVCAR-3 is 3.55 µM (inactive); in the assay on SK-MEL-5, 1.74 µM (inactive); with SNB-19, 3.71 µM (inactive); with COLO 205, 1.81 µM (inactive); in the assay on NCI-H460, 1.75 µM (inactive); in the assay with LOX IMVI it was 2.07 µM (inactive). Moreover, the GI50 was 5.21 µM (inactive) with HOP-62; 3.49 µM (inactive) with KM12; 3.39 µM (inactive) in the assay on NCI/ADR-RES; 5.09 µM (inactive) in the assay on NCI-H23; 1.42 µM (inactive) in the assay with Malme-3M.

For the molecule `S=C(NCCc1ccccn1)N/N=C(\c1ccccc1)c1ccccn1`, the GI50 in the assay on IGROV-1 was < 0.0103 µM (active); with HCT-116, < 0.01 µM (active); in the assay with HL-60, < 0.0359 µM (active); in the assay with BT-549, 3.3 µM (inactive); in the assay with RPMI-8226, 0.0634 µM (active); with A549 it was 3.4 µM (inactive). The GI50 in the assay on OVCAR-3 is 0.0989 µM (active); with SK-MEL-5, 1.45 µM (inactive); with SNB-19, 5.43 µM (inactive); in the assay with COLO 205, < 0.01 µM (active); with NCI-H460, 0.179 µM (active); in the assay on LOX IMVI, 0.301 µM (active). Besides, the GI50 in the assay on HOP-62 is 1.77 µM (inactive); with KM12, 2.76 µM (inactive); in the assay on NCI/ADR-RES, 0.0933 µM (active); in the assay with NCI-H23, 0.125 µM (active); in the assay with Malme-3M it was 0.0251 µM (active).

`CCC(C)C(NC(=O)C(CCCCN)NC(=O)C(NC(=O)C(CCC(N)=O)NC(=O)C(CCCNC(=N)N)NC(C)=O)C(C)CC)C(=O)NC(Cc1c[nH]c2ccccc12)C(=O)NC(Cc1ccccc1)C(=O)NC(CCC(N)=O)C(=O)NC(CC(N)=O)C(=O)NC(CCCNC(=N)N)C(=O)NC(CCCNC(=N)N)C(=O)NC(CCSC)C(=O)NC(CCCCN)C(=O)NC(Cc1c[nH]c2ccccc12)C(=O)NC(CCCCN)C(=O)NC(CCCCN)C(N)=O` (centres undefined): the GI50 in the assay on IGROV-1 was > 50 µM (inactive); in the assay with HCT-116 it was > 50 µM (inactive); in the assay with HL-60, > 50 µM (inactive); in the assay on BT-549, > 50 µM (inactive); in the assay with RPMI-8226 it was 11.2 µM (inactive); with A549, > 50 µM (inactive). Moreover, the GI50 in the assay on OVCAR-3 was 31.1 µM (inactive); in the assay with SK-MEL-5, 22.5 µM (inactive); with SNB-19, > 50 µM (inactive); in the assay with COLO 205, 38.3 µM (inactive); with NCI-H460 it was 15.5 µM (inactive); with LOX IMVI it was > 50 µM (inactive). For the same molecule, the GI50 in the assay with HOP-62 is 39.6 µM (inactive); in the assay with KM12, 14.5 µM (inactive); in the assay on NCI/ADR-RES, > 50 µM (inactive); in the assay with NCI-H23, > 50 µM (inactive); in the assay on Malme-3M, 34.1 µM (inactive).

In the case of `CCOP(=O)(OCC)C1C(CO)OC(n2ccc(=O)[nH]c2=O)C1O` (centres undefined), the GI50 in the assay with IGROV-1, with HCT-116, with HL-60, in the assay with BT-549, in the assay with RPMI-8226 and in the assay on A549 was > 100 µM (inactive) in each case. Further, the GI50 in the assay with OVCAR-3, in the assay with SK-MEL-5, in the assay with SNB-19, with NCI-H226, with NCI-H460 and with LOX IMVI was > 100 µM (inactive) in each case. In addition, the GI50 in the assay with HOP-62, in the assay with KM12 and with Malme-3M was > 100 µM (inactive) each time.

For the molecule `Oc1cnnc2nc3ccccc3n12`, the GI50 in the assay on IGROV-1, in the assay with HCT-116, in the assay with HL-60, in the assay on BT-549, in the assay with A549 and with SK-MEL-5 was > 100 µM (inactive) each time. Besides, the GI50 in the assay with SNB-19 was > 100 µM (inactive); with NCI-H226, > 100 µM (inactive); in the assay on COLO 205 it was > 100 µM (inactive); in the assay with NCI-H460, > 100 µM (inactive); with LOX IMVI, 85.5 µM (inactive); in the assay on HOP-62, > 100 µM (inactive). The GI50 in the assay with KM12, with NCI/ADR-RES, in the assay on NCI-H23 and in the assay with Malme-3M was > 100 µM (inactive) throughout.

Turning to `COc1c(C)c2nc3ccccc3nc2c2c(O)ccnc12`, the GI50 was 43.3 µM (inactive) in the assay with IGROV-1; > 100 µM (inactive) in the assay on HCT-116; > 100 µM (inactive) with HL-60; > 100 µM (inactive) in the assay with RPMI-8226; 37.1 µM (inactive) in the assay with A549; > 100 µM (inactive) in the assay on OVCAR-3. In addition, the GI50 in the assay with SK-MEL-5 is 35.6 µM (inactive); with SNB-19, 36.6 µM (inactive); in the assay with NCI-H226, > 100 µM (inactive); in the assay on COLO 205, 46.1 µM (inactive); with NCI-H460, 53.5 µM (inactive); in the assay on LOX IMVI it was > 100 µM (inactive). Besides, the GI50 in the assay on HOP-62 was 23.5 µM (inactive); with KM12, > 100 µM (inactive); with NCI/ADR-RES, > 100 µM (inactive); with NCI-H23 it was 55.6 µM (inactive); with Malme-3M, > 100 µM (inactive).

Regarding `CN(C(=O)c1ccccc1)C1CCCC(=O)CC1` (centres undefined), the GI50 with IGROV-1, in the assay on HCT-116, with HL-60, with BT-549, in the assay on RPMI-8226 and with A549 was > 100 µM (inactive) each time. The GI50 in the assay on OVCAR-3, in the assay with SNB-19, in the assay with NCI-H226, in the assay on COLO 205, in the assay with NCI-H460 and with LOX IMVI was > 100 µM (inactive) throughout. Moreover, the GI50 in the assay on HOP-62, in the assay with KM12, in the assay on NCI-H23 and in the assay with Malme-3M was > 100 µM (inactive) throughout.

Regarding `COc1cc(Nc2cnc3cc(F)c(F)cc3n2)cc(OC)c1`, the GI50 in the assay on IGROV-1 is > 100 µM (inactive); in the assay with HCT-116, 58.1 µM (inactive); in the assay with HL-60 it was > 100 µM (inactive); in the assay with BT-549, 33.9 µM (inactive); in the assay with A549, > 100 µM (inactive); with OVCAR-3, > 100 µM (inactive). In addition, the GI50 is > 100 µM (inactive) with SK-MEL-5; 26.2 µM (inactive) in the assay on SNB-19; > 100 µM (inactive) in the assay with NCI-H226; > 100 µM (inactive) in the assay with COLO 205; > 100 µM (inactive) in the assay with NCI-H460; 67.3 µM (inactive) in the assay on LOX IMVI. Moreover, the GI50 was 25.9 µM (inactive) in the assay with HOP-62; > 100 µM (inactive) in the assay on KM12; 90.4 µM (inactive) in the assay with NCI/ADR-RES; 20.8 µM (inactive) in the assay on NCI-H23; > 100 µM (inactive) in the assay with Malme-3M.

`c1ccc2c3c(ccc2c1)CSCc1ccc2ccccc2c1-3`: the GI50 in the assay with IGROV-1 is > 100 µM (inactive); with HCT-116, > 100 µM (inactive); in the assay with HL-60, > 10 µM (inactive); with BT-549 it was > 100 µM (inactive); in the assay on RPMI-8226, > 100 µM (inactive); in the assay with A549, > 100 µM (inactive). Besides, the GI50 in the assay on OVCAR-3, in the assay on SK-MEL-5, in the assay on SNB-19, in the assay on COLO 205, in the assay with LOX IMVI and in the assay with HOP-62 was > 100 µM (inactive) each time. For the same molecule, the GI50 with KM12, in the assay with NCI/ADR-RES, in the assay on NCI-H23 and with Malme-3M was > 100 µM (inactive) each time.

For the origin of these results see ChEMBL document CHEMBL1201862, “PubChem BioAssay data set” (2004).
